According to paper PMC10304880, “Novel Tryptanthrin Derivatives with Selectivity as c–Jun N–Terminal Kinase (JNK) 3 Inhibitors” (Molecules, 2023):

Columns and labels:
JNK1 = target: T1, JNK1 (Homo sapiens, UniProt P45983); test: KINOMEscan JNK1 binding (Kd); conditions: 12-point series, max 33 μM, duplicate
T1 construct: purchased Eurofins Pharma Discovery (KINOMEscan service)
Description: (§1) All compounds were evaluated for their ability to bind to JNK1-3 using the KINOMEscan platform.
(§2) Compounds were submitted for dissociation constant (Kd) determination using KINOMEscan (Eurofins Pharma Discovery, San Diego, CA, USA), as described previously. […] Primary screening at fixed concentrations of compounds was performed in duplicate. To determine dissociation constant Kd, a 12-point half-log dilution series (a maximum concentration of 33 μM) was used.

JNK2 = target: T2, JNK2 (Homo sapiens, UniProt P45984); test: KINOMEscan JNK2 binding (Kd); conditions: 12-point series, max 33 μM, duplicate
T2 construct: purchased Eurofins Pharma Discovery (KINOMEscan service)
T2 sequence (P45984 whole entry): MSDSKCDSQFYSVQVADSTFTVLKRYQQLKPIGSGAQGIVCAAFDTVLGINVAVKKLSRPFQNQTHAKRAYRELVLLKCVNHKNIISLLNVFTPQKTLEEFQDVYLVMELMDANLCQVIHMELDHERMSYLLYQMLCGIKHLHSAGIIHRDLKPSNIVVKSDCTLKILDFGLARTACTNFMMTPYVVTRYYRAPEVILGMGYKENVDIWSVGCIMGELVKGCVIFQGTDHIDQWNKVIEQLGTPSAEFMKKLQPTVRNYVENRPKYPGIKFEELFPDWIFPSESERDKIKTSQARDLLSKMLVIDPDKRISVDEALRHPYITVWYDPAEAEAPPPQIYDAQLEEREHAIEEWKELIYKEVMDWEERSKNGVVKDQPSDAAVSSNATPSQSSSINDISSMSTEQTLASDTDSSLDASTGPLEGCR
Description: as §1, §2

JNK3 = target: T3, JNK3 (Homo sapiens, UniProt P53779); test: KINOMEscan JNK3 binding (Kd); conditions: for Kd: KINOMEscan, 12-point series, max 33 μM, duplicate; for Selectivity Index JNK1/JNK3 / Selectivity Index JNK2/JNK3: ratio of Kd values
T3 construct: purchased Eurofins Pharma Discovery (KINOMEscan service)
T3 sequence (P53779 whole entry): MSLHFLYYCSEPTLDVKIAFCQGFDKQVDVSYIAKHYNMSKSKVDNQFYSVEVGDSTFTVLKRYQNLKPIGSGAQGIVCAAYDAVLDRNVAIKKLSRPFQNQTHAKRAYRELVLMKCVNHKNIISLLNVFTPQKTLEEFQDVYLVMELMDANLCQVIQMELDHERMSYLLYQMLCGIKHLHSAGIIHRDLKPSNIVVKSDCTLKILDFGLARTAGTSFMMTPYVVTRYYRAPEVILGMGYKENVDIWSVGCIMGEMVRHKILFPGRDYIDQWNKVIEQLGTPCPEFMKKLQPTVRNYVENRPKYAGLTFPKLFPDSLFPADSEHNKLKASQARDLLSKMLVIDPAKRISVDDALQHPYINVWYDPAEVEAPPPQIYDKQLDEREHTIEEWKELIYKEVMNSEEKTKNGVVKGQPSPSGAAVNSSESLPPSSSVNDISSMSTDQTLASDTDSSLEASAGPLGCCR
Description: as §1, §2

[1] = tested on: NF-κB/AP-1 transcriptional activity in THP-1Blue cells; test: LPS-induced NF-κB/AP-1 alkaline phosphatase reporter assay in THP-1Blue cells; format: cell-based; conditions: Homo sapiens, 30 min pretreatment, 250 ng/mL LPS, 24 h; read-out: AP Production in THP–1Blue IC50
Description: Activation of AP-1/NF-κB was measured using an alkaline phosphatase reporter gene assay in THP1-Blue cells. Human monocytic THP-1Blue cells were stably transfected with a secreted embryonic alkaline phosphatase gene that was under the control of a promoter inducible by AP-1/NF-κB.
Figure 2 Effect of compounds 4d and 4e on NF-κB/AP-1 activity and IL-6 production. Panel (A) THP-1Blue cells were pretreated with the indicated compounds or DMSO for 30 min, followed by addition of 250 ng/mL LPS or buffer for 24 h. […] Panel (B) MonoMac-6 cells were pretreated with the indicated compounds or DMSO for 30 min, followed by addition of 250 ng/mL LPS or buffer for 24 h. Production of IL-6 in the supernatants was evaluated with ELISA. The data in each panel are presented as the mean ± S.D. of triplicate samples from one experiment that is representative of three independent experiments.

[2] = CellTiter-Glo cytotoxicity in THP-1Blue cells; format: cell-based; conditions: human, 24 h incubation
Description: (§3) Prior to evaluation of the compounds in cell-based assays, we measured their cytotoxicity in human monocytic THP-1Blue and MonoMac-6 cells during a 24 h incubation. […] Thus, these compounds were all excluded from subsequent testing in these cell lines.
(§4) Cytotoxicity was analyzed with a CellTiter-Glo Luminescent Cell Viability Assay Kit from Promega (Madison, WI, USA), according to the manufacturer’s protocol. Cells were treated with the compound under investigation and cultivated for 24 h. After treatment, the cells were allowed to equilibrate to room temperature for 30 min, substrate was added, and the luminescence measured using a Fluoroscan Ascent FL (Thermo Fisher Scientific, Waltham, MA, USA). The cell IC50 values were calculated by plotting the percentage inhibition against the logarithm of inhibitor concentration (at least five points).

[3] = tested on: IL-6 production in MonoMac-6 cells; test: LPS-induced IL-6 production in MonoMac-6 cells (ELISA); format: cell-based, human; conditions: 250 ng/mL LPS, 24 h
Description: All cells were cultured at 37 °C in a humidified atmosphere containing 5% CO2. Human THP-1Blue monocytic cells obtained from InvivoGen (San Diego, CA, USA) were cultured in RPMI 1640 medium (Mediatech Inc., Herndon, VA, USA) supplemented with 10% (v/v) fetal bovine serum (FBS), 4.5 g/L glucose, 100 μg/mL streptomycin, 100 U/mL penicillin, 100 μg/mL phleomycin (Zeocin), and 10 μg/mL blasticidin S. Human monocyte-macrophage MonoMac-6 cells (Deutsche Sammlung von Mikroorganismen und Zellkulturen GmbH, Braunschweig, Germany) were grown in RPMI 1640 medium supplemented with 10% (v/v) FBS, 10 μg/mL bovine insulin, 100 μg/mL streptomycin, and 100 U/mL penicillin.
Panel (A) THP-1Blue cells were pretreated with the indicated compounds or DMSO for 30 min, followed by addition of 250 ng/mL LPS or buffer for 24 h. […] Panel (B) MonoMac-6 cells were pretreated with the indicated compounds or DMSO for 30 min, followed by addition of 250 ng/mL LPS or buffer for 24 h. Production of IL-6 in the supernatants was evaluated with ELISA. The data in each panel are presented as the mean ± S.D. of triplicate samples from one experiment that is representative of three independent experiments.

[4] = CellTiter-Glo cytotoxicity in MonoMac-6 cells; format: cell-based; conditions: human, 24 h incubation
Description: as §3, §4

[5] = tested on: c-Jun phosphorylation in MonoMac-6 cells; test: LPS-induced c-Jun (Ser63) phosphorylation in MonoMac-6 cells (sandwich ELISA); format: cell-based, human; conditions: 30 min pretreatment, LPS 500 ng/mL
Description: After 30 min pretreatment with the compounds, the cells were stimulated with LPS (500 ng/mL), and the level of phospho-c-Jun (S63) was determined by a sandwich ELISA.
MonoMac-6 cell lysates were prepared using Cell Lysis Buffer (Cell Signaling Technology, Danvers, MA, USA). The phospho-c-Jun content was measured with ELISA using the PathScan Phospho-c-Jun (Ser63) Sandwich ELISA Kit II (Cell Signaling Technology, USA), and the data are shown as the ratio of phospho-c-Jun vs. total c-Jun, which was measured using the FastScanTM Total c-Jun ELISA kit (Cell Signaling Technology).
Figure 3 Effect of the compounds 4d, 4e, 4h, and IQ-1S on LPS-induced c-Jun phosphorylation. Human MonoMac-6 monocytic cells were pretreated with the indicated concentrations of compounds or 0.5% DMSO for 30 min, followed by treatment with LPS (500 ng/mL) or control buffer for another 30 min. The cells were lysed, and the lysates were analyzed with ELISA for phospho-c-Jun (Ser63) and total c-Jun. The data are represented as the ratio of phospho-c-Jun to total c-Jun. The data are presented as the mean ± S.D. of triplicate samples from one experiment that is representative of three independent experiments. * Significant differences (p < 0.05) with LPS control.

[6] = Homo sapiens, MONO-MAC-6, 30 min pretreatment

T1 sequence (P45983 whole entry): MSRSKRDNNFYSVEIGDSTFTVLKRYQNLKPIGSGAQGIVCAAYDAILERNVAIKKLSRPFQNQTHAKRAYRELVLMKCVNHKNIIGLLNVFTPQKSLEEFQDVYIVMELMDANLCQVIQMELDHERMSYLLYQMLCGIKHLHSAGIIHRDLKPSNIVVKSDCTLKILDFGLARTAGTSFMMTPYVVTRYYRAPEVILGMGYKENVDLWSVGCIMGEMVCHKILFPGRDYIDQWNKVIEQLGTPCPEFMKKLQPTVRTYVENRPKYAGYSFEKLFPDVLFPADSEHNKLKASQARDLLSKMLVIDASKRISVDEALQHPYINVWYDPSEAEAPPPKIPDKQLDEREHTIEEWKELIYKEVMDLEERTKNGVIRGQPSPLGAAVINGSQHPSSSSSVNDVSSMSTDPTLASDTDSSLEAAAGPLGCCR

Structure (SMILES)	Kd (JNK1) [µM]	Kd (JNK2) [µM]	Kd (JNK3) [µM]	Selectivity Index JNK1/JNK3 (JNK3)	Selectivity Index JNK2/JNK3 (JNK3)	IC50 [1] [µM]	IC50 at 24 h [2] [µM]	IC50 ([3]; 30 min pretreatment) [µM]	IC50 [3, 6] [µM]	IC50 at 24 h [4] [µM]	melting point	LPS-induced c-Jun phosphorylation (phospho-c-Jun S63 / total c-Jun) [5]
Cc1ccc2c(c1)C(=NO)c1nc3ccc(C)cc3c(=O)n1-2 [Compound 4o, 2,8-Dimethylindolo[2,1-b]quinazolin-6,12-dione Oxime]	3.7 ± 0.5	6.9 ± 0.2	0.87 ± 0.16	4.3	7.9	8.1 ± 0.1	> 50	0.8 ± 0.1	< 1	> 50	> 300 °C (dec.)	–
O=c1c2ccc([N+](=O)[O-])cc2nc2n1-c1ccccc1C2=NO [Compound 4m, 3-Nitroindolo[2,1-b]quinazolin-6,12-dione Oxime]	> 30	> 30	6.1 ± 0.4	>5.6	>5.6	8.3 ± 0.2	> 50	–	1.9 ± 0.3	> 50	> 225 °C (dec.)	–
O=c1c2ccc(F)cc2nc2n1-c1ccccc1C2=NO [Compound 4l, 3-Fluoroindolo[2,1-b]quinazolin-6,12-dione Oxime]	1.1 ± 0.1	0.72 ± 0.22	0.43 ± 0.04	2.6	1.7	5 ± 0.1	> 50	0.61 ± 0.04	< 1	> 50	> 225 °C (dec.)	–
O=c1c2c(Br)cccc2nc2n1-c1cccc(Br)c1C2=NO [Compound 4u, 1,7-Dibromoindolo[2,1-b]quinazolin-6,12-dione Oxime]	> 30	> 30	> 30	–	–	> 50	> 50	–	> 50	> 50	> 300 °C (dec.)	–
CCOC(=O)CON=C1c2ccccc2-n2c1nc1ccccc1c2=O [Compound 5a, Ethyl 2-(((12-Oxoindolo[2,1-b]quinazolin-6(12H)-ylidene)amino)oxy)acetate]	> 30	> 30	> 30	–	–	> 50	> 50	–	> 50	> 50	218 °C	–
C#CCOC(=O)ON=C1c2ccccc2-n2c1nc1ccccc1c2=O [Compound 5d, 6-((((Prop-2-yn-1-yloxy)carbonyl)oxy)imino)indolo[2,1-b]quinazolin-12(6H)-one]	0.95 ± 0.03	1.6 ± 0.1	0.32 ± 0.06	3.0	5.0	4.4 ± 1.6	> 50	–	7 ± 0.9	> 50	210 °C	–
COc1ccc2c(c1)C(=NO)c1nc3ccc(OC)cc3c(=O)n1-2 [Compound 4q, 2,8-Dimethoxylindolo[2,1-b]quinazolin-6,12-dione Oxime]	> 30	> 30	> 30	–	–	4.6 ± 0.3	> 50	–	1.3 ± 0.4	> 50	262 to 263 °C	–
COC(=O)ON=C1c2ccccc2-n2c1nc1ccccc1c2=O [Compound 5c, 6-(((Methoxycarbonyl)oxy)imino)indolo[2,1-b]quinazolin-12(6H)-one]	1.7 ± 0.4	2.8 ± 0.5	0.7 ± 0.12	2.4	4.0	8.1 ± 2.2	> 50	–	12.4 ± 1.3	> 50	197 °C	–
Cc1cccc2c1C(=NO)c1nc3ccccc3c(=O)n1-2 [Compound 4g, 7-Methylindolo[2,1-b]quinazolin-6,12-dione Oxime]	6.2 ± 1.8	14 ± 0.7	0.4 ± 0.04	15.5	35	> 50	> 50	–	25.2 ± 5.3	> 50	> 225 °C (dec.)	–
[Na+].[O-]/N=C1/c2ccccc2-c2nc3ccccc3nc21 [IQ-1S, reference compound]	–	–	–	–	–	–	–	–	–	–	–	dose-dependently inhibited
CCOC(=O)C(ON=C1c2ccccc2-n2c1nc1ccccc1c2=O)C(=O)OCC [Compound 5b, Diethyl 2-(((12-Oxoindolo[2,1-b]quinazolin-6(12H)-ylidene)amino)oxy)malonate]	16.5 ± 0.7	> 30	> 30	–	–	> 50	> 50	–	> 50	> 50	211 °C	–
